In patent US20180244611A1, “Modulators of the Cystic Fibrosis Transmembrane Conductance Regulator Protein and Methods of Use” (AbbVie S.à.r.l., priority 2017, published 2018):

Experiments:
F508delCFTR [1] = biological target: T1, F508delCFTR (Homo sapiens, UniProt P13569, DEL508-508); experiment: Cell Surface Expression-Horse Radish Peroxidase (CSE-HRP) assay, test compound without co-corrector; type: cell-based; conditions: for Emax: maximum at any tested concentration, normalized to positive control, without co-corrector; for EC50: test compound without co-corrector;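 on Emax: percent of on-plate 2 µM positive control corrector response over DMSO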
T1 construct: expressed in transfected cells; host or cells: CFBE41o- human lung-derived epithelial cells (CFBE41o-F508delCFTR-HRP), doxycycline-inducible
T1 sequence (P13569 with tags, fused parts or gaps DEL508-508): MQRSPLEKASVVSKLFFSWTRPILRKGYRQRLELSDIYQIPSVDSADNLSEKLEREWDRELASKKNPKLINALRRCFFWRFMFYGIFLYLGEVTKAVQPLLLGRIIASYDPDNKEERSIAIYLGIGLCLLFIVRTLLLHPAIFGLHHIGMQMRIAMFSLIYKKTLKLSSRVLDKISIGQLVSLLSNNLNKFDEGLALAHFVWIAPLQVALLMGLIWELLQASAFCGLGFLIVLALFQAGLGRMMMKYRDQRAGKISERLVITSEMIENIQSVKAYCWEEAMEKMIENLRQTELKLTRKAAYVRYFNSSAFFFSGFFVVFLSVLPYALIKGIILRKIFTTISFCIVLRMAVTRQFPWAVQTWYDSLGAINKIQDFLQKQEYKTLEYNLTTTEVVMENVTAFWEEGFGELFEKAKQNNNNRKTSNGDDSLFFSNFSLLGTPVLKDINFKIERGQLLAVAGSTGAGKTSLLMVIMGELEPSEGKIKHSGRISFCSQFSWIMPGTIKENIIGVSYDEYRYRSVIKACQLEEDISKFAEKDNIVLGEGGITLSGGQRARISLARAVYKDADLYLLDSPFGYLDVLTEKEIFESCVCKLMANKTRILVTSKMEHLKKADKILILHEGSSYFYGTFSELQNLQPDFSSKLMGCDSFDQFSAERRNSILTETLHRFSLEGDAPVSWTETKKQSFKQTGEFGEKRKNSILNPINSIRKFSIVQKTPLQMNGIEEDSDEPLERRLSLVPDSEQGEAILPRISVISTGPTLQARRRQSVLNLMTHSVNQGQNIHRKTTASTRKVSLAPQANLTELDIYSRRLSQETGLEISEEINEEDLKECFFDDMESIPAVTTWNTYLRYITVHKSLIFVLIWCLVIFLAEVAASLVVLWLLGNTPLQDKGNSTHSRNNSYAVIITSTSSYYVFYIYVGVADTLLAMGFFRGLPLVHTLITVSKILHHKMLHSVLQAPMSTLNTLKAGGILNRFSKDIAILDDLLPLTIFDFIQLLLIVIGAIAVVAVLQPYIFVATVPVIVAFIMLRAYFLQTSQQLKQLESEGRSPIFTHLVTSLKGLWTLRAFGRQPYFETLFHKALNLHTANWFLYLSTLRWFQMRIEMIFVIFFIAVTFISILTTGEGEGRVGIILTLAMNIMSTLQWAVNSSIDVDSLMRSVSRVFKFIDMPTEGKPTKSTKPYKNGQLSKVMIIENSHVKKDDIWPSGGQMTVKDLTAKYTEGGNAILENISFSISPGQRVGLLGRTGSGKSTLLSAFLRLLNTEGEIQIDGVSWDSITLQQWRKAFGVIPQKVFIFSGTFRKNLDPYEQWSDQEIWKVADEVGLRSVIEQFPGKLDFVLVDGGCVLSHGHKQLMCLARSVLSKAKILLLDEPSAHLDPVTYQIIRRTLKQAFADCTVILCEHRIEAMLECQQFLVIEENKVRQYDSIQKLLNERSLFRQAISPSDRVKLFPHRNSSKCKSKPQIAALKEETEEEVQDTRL
Description: (§1) Cell Surface Expression-Horse Radish Peroxidase (CSE-HRP) Assay
(§2) A cellular assay for measuring the F508delCFTR cell surface expression after correction with test compounds either without or with a co-corrector (2 μM of 3-[(2R,4R)-4-({[1-(2,2-difluoro-1,3-benzodioxol-5-yl)cyclopropyl]carbonyl}amino)-7-methoxy-3,4-dihydro-2H-chromen-2-yl]benzoic acid), was developed in human lung derived epithelial cell line (CFBE41o-) (Veit G et al, (2012) Mol Biol Cell. 23(21): 4188-4202). The development was achieved by expressing the F508delCFTR mutation along with a horseradish peroxidase (HRP) in the fourth exofacial loop, and then measuring the HRP activity using luminescence readout from these cells, CFBE41o-F508delCFTR-HRP, that were incubated overnight with the test corrector compounds, either without or with the co-corrector. For this primary assay, the CFBE41o-F508delCFTR-HRP cells were plated in 384-well plates (Greiner Bio-one; Cat 781080) at 4,000 cells/well along with 0.5 μg/mL doxycycline to induce the F508delCFTR-HRP expression and further incubated at 37° C., 5% CO2 for 72 hours. The test compounds were then added either without or with a co-corrector at the required concentrations and further incubated for 18-24 hours at 33° C. The highest concentration tested was 20 μM with an 8-point concentration response curve using a 3-fold dilution in both the test compound without or with the co-corrector. Three replicate plates were run to determine one EC50. All plates contained negative controls (dimethyl sulfoxide, DMSO) and positive control (2 μM of 3-[(2R,4R)-4-({[1-(2,2-difluoro-1,3-benzodioxol-5-yl)cyclopropyl]carbonyl}amino)-7-methoxy-3,4-dihydro-2H-chromen-2-yl]benzoic acid) as well as on-plate concentration response of the positive control. Post incubation, the plates were washed 5× times with Dulbecco's phosphate buffered saline (DPBS), followed by the addition of the HRP substrate, luminol (50 μL), and measuring the HRP activity using luminescence readout on EnVision® Multilabel Plate Reader (Perkin Elmer; product number 2104-0010). The raw counts from the experiment were analyzed using Accelrys® Assay Explorer v3.3.
(§3) Z′ greater than 0.5 was used as passing quality control criteria for the plates.
(§4) 1−[3*SDPositive Control+3*SDNegative Control/Absolute (MeanPositive Control−MeanNegative Control)]
(§5) wherein “SD” is standard deviation.
(§6) The % activity measured at each of the 8 test concentrations of the test compound added either without or with a co-corrector (2 μM of 3-[(2R,4R)-4-({[1-(2,2-difluoro-1,3-benzodioxol-5-yl)cyclopropyl]carbonyl}amino)-7-methoxy-3,4-dihydro-2H-chromen-2-yl]benzoic acid) was normalized to the on-plate positive control using the following formulae:
% activity (Test compound without co-corrector)=[(test compound without co-corrector response−DMSO response)/(positive control response−DMSO response)]*100%
(§7) The maximum % activity achieved for the test compound either without or with a co-corrector at any tested concentration is presented in Table 1 along with the respective EC50's calculated using the following general sigmoidal curve with variable Hill slope equation (described as Model 42 in the Accelrys® Assay Explorer v3.3 software):
(§8) General sigmoidal curve with concentration, response, top, bottom, EC50 and Hill slope. This model describes a sigmoidal curve with an adjustable baseline, a. The equation can be used to fit curves where response is either increasing or decreasing with respect to the independent variable, “x”.
“x” is a concentration of drug under test. “y” is the response. “a” is the maximum response, and “d” is the minimum response “c” is the inflection point (EC50) for the curve. That is, “y” is halfway between the lower and upper asymptotes when x=c. “b” is the slope-factor or Hill coefficient. The sign of b is positive when the response increases with increasing dose and is negative when the response decreases with increasing dose (inhibition). The data is presented with the qualifiers shown below: […]

F508delCFTR [2] = biological target: T1, F508delCFTR; experiment: Cell Surface Expression-Horse Radish Peroxidase (CSE-HRP) assay, test compound with co-corrector; type: cell-based; conditions: with 2 μM co-corrector; for Maximum % activity (with co-corrector): maximum at any tested concentration, normalized to positive control;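 on Maximum % activity (with co-corrector): percent of 2 µM positive control corrector over DMSO; co-corrector is that same compound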
Description: as §1, §2, §3, §4, §5, §6
activity (Test compound with co-corrector)=[(test compound with co-corrector response−DMSO response)/(positive control response−DMSO response)]*100
as §7, §8
“x” is a concentration of drug under test. “y” is the response. “a” is the maximum response, and “d” is the minimum response “c” is the inflection point (EC50) for the curve. That is, “y” is halfway between the lower and upper asymptotes when x=c. “b” is the slope-factor or Hill coefficient. The sign of b is positive when the response increases with increasing dose and is negative when the response decreases with increasing dose (inhibition).

Emax (F508delCFTR [1]) [%]	EC50 (F508delCFTR [1]) [µM]	Maximum % activity (with co-corrector) (F508delCFTR [2])	EC50 (F508delCFTR [2]) [µM]	SMILES
≥ 150	< 3	+++ (≥350)	< 3	COc1cccc2c1CCCC2(Cc1ccccc1)C(=O)NS(=O)(=O)c1cccc2ccccc12 (stereo not shown) [Example I-9, 1-benzyl-5-methoxy-N-(naphthalene-1-sulfonyl)-1,2,3,4-tetrahydronaphthalene-1-carboxamide]
≥ 150	3 to 10	+++ (≥350)	< 3	CCC1(C(=O)NS(=O)(=O)c2cccc3ccccc23)CCCc2c(OC)cccc21 (stereo not shown) [Example I-10, 1-ethyl-5-methoxy-N-(naphthalene-1-sulfonyl)-1,2,3,4-tetrahydronaphthalene-1-carboxamide]
≥ 150	< 3	+++ (≥350)	< 3	O=C(NS(=O)(=O)c1cccc2ccccc12)[C@@H]1CCCc2cccc(Cl)c21 [Example I-11, (1R)-8-chloro-N-(naphthalene-1-sulfonyl)-1,2,3,4-tetrahydronaphthalene-1-carboxamide]
≥ 150	3 to 10	+++ (≥350)	< 3	O=C(NS(=O)(=O)c1cccc2ccccc12)[C@H]1CCCc2cccc(Cl)c21 [Example I-12, (1S)-8-chloro-N-(naphthalene-1-sulfonyl)-1,2,3,4-tetrahydronaphthalene-1-carboxamide]
< 50	≥ 10	++ (≥150 and <350)	< 3	CCC1(C(=O)NS(=O)(=O)c2cccc3c2OC(F)(F)O3)CCc2c(Cl)cccc21 (stereo not shown) [Example I-13, 4-chloro-N-(2,2-difluoro-2H-1,3-benzodioxole-4-sulfonyl)-1-ethyl-2,3-dihydro-1H-indene-1-carboxamide]
≥ 150	< 3	+++ (≥350)	< 3	CC1(C(=O)NS(=O)(=O)c2cccc3ccccc23)CCc2cccc(Cl)c21 (stereo not shown) [Example I-14, 7-chloro-1-methyl-N-(naphthalene-1-sulfonyl)-2,3-dihydro-1H-indene-1-carboxamide]
≥ 150	< 3	+++ (≥350)	< 3	COc1ccc(Br)c2c1CCCC2C(=O)NS(=O)(=O)c1cccc2ccccc12 (stereo not shown) [Example I-15, 8-bromo-5-methoxy-N-(naphthalene-1-sulfonyl)-1,2,3,4-tetrahydronaphthalene-1-carboxamide]
50 to 150	< 3	+++ (≥350)	< 3	O=C(NS(=O)(=O)c1cccc2ccccc12)C1(CCN2CCC(F)(F)C2)CCc2c(Cl)cccc21 (stereo not shown) [Example I-16, 4-chloro-1-[2-(3,3-difluoropyrrolidin-1-yl)ethyl]-N-(naphthalene-1-sulfonyl)-2,3-dihydro-1H-indene-1-carboxamide]
50 to 150	< 3	+++ (≥350)	< 3	CC[C@]1(C(=O)NS(=O)(=O)c2cccc3ccccc23)CCc2c(Cl)cccc21 [Example I-17, (1S)-4-chloro-1-ethyl-N-(naphthalene-1-sulfonyl)-2,3-dihydro-1H-indene-1-carboxamide]
≥ 150	< 3	+++ (≥350)	< 3	CC[C@@]1(C(=O)NS(=O)(=O)c2cccc3ccccc23)CCc2c(Cl)cccc21 [Example I-18, (1R)-4-chloro-1-ethyl-N-(naphthalene-1-sulfonyl)-2,3-dihydro-1H-indene-1-carboxamide]
≥ 150	3 to 10	+++ (≥350)	< 3	COc1ccc(Br)c2c1C(C(=O)NS(=O)(=O)c1cccc3ccccc13)CC2 (stereo not shown) [Example I-19, 4-bromo-7-methoxy-N-(naphthalene-1-sulfonyl)-2,3-dihydro-1H-indene-1-carboxamide]
≥ 150	3 to 10	+++ (≥350)	3 to 10	C[C@]1(C(=O)NS(=O)(=O)c2cccc3ccccc23)CCc2c1ccc1c2OCO1 [Example I-20, (6S)-6-methyl-N-(naphthalene-1-sulfonyl)-7,8-dihydro-2H,6H-indeno[4,5-d][1,3]dioxole-6-carboxamide]
≥ 150	3 to 10	+++ (≥350)	3 to 10	C[C@@]1(C(=O)NS(=O)(=O)c2cccc3ccccc23)CCc2c1ccc1c2OCO1 [Example I-21, (6R)-6-methyl-N-(naphthalene-1-sulfonyl)-7,8-dihydro-2H,6H-indeno[4,5-d][1,3]dioxole-6-carboxamide]
≥ 150	3 to 10	+++ (≥350)	< 3	COc1ccc2c(c1)[C@@](C)(C(=O)NS(=O)(=O)c1cccc3ccccc13)CC2 [Example I-22, (1S)-6-methoxy-1-methyl-N-(naphthalene-1-sulfonyl)-2,3-dihydro-1H-indene-1-carboxamide]
≥ 150	3 to 10	+++ (≥350)	< 3	COc1ccc2c(c1)[C@](C)(C(=O)NS(=O)(=O)c1cccc3ccccc13)CC2 [Example I-23, (1R)-6-methoxy-1-methyl-N-(naphthalene-1-sulfonyl)-2,3-dihydro-1H-indene-1-carboxamide]
≥ 150	3 to 10	+++ (≥350)	< 3	O=C(NS(=O)(=O)c1cccc2ccccc12)C1CCCc2c1ccc1c2OCO1 (stereo not shown) [Example I-24, N-(naphthalene-1-sulfonyl)-6,7,8,9-tetrahydro-2H-naphtho[1,2-d][1,3]dioxole-6-carboxamide]
≥ 150	< 3	+++ (≥350)	< 3	C[C@@]1(C(=O)NS(=O)(=O)c2cccc3ccccc23)CCc2cccc(Cl)c21 [Example I-27, (1R)-7-chloro-1-methyl-N-(naphthalene-1-sulfonyl)-2,3-dihydro-1H-indene-1-carboxamide]
≥ 150	< 3	+++ (≥350)	< 3	CCC1(C(=O)NS(=O)(=O)c2cccc3ccccc23)CCc2c(Br)ccc(OC)c21 (stereo not shown) [Example I-28, 4-bromo-1-ethyl-7-methoxy-N-(naphthalene-1-sulfonyl)-2,3-dihydro-1H-indene-1-carboxamide]
≥ 150	< 3	+++ (≥350)	< 3	O=C(NS(=O)(=O)c1cccc2ccccc12)C1(CC2CC2)CCc2c(Cl)cccc21 (stereo not shown) [Example I-29, 4-chloro-1-(cyclopropylmethyl)-N-(naphthalene-1-sulfonyl)-2,3-dihydro-1H-indene-1-carboxamide]
